# In patent publication US20120052099A1, “PHARMACEUTICAL COMPOSITION CONTAINING ARBIDOL IN THE FORM OF PHOSPHOLIPID NANOPARTICLES” (priority 2009, published 2012):
# “Also recorded” adds a separate entry of the source. Counter-ions that a name gives are not always drawn.
# Tests used:
# [1] = test system: whole blood; assay: Hemolysis on addition to whole blood in vitro; format: cell-based; settings: 50 μl of 5 mg/ml Arbidol added to 950 μl whole blood, 37° C., 20 minutes
# [2] = Bioaccessibility (pharmacokinetics) after peroral administration in rats; format: in vivo; parameters: area (chromatogram peak), blood: unit not given here; settings: 25 mg/kg
# Protocol: 1. The content of an NF Arbidol flask was dissolved in 5 ml. (A) 2. An Arbidol solution was prepared at a concentration of 5 mg/ml (suspension in water). (B) 3. Feed was withdrawn from the animals, leaving them water only, 24 hours before the experiment, and the animals were weighed on the day of the experiment. 4. 1 ml of solution A and B was administered perorally to the rats. 5. Blood was collected at intervals of 5, 10, 15, 30, and 45 minutes into eppendorfs containing EDTA. After an eppendorf was filled, it was shaken intensively. 6. Blood treatment: 900 μl of methanol was added to 100 μl of blood and agitated intensively for 3 to 5 minutes. The mixture was centrifuged to cause sedimentation of proteins. It was then analyzed by high-performance liquid chromatography for presence of Arbidol in the samples.
# The dose administered was 25 mg/kg.
# [3] = cited from earlier work
# [4] = used internally; cited from earlier work
# [5] = 10 minutes after administration
# [6] = 15 minutes after administration
# [7] = 30 minutes after administration
smiles,measurement,setting,value
"CCOC(=O)c1c(CSc2ccccc2)n(C)c2cc(Br)c(O)c(CN(C)C)c12 [Arbidol, ethyl ester of 6-bromo-5-hydroxy-1-methyl-4-dimethylaminomethyl-2-phenylthiomethylindole-3-carbonic acid hydrochloride monohydrate]",Hemolysis if added to whole blood,[1],causes hemolysis
same,"area (chromatogram peak), blood",[2]; 5 minutes after administration,0/0
same,concentration in blood,[2]; 5 minutes after administration,0/0 μg/ml
same,"area (chromatogram peak), blood",[2]; [5],1.2
same,concentration in blood,[2]; [5],0.3 µg/mL
same,"area (chromatogram peak), blood",[2]; [6],7.69
same,concentration in blood,[2]; [6],2.4 µg/mL
same,"area (chromatogram peak), blood",[2]; [7],1.6
same,concentration in blood,[2]; [7],0.4 µg/mL
same,solubility in ethanol,[3]; ethanol,dissolved only slightly in ethanol
same,solubility in water,"[3]; water, hydrochloride monohydrate",practically insoluble in water; also recorded: not soluble in water; also recorded: not dissolved in water
same,T1/2,[4],approximately 17 hours
